Data: patent US20240082273A1, “NEUROKININ INHIBITORS SUCH AS APREPITANT FOR TREATING NON SMALL CELL LUNG CARCINOMA OR BREAST CANCER WITHOUT MUTATIONS” (priority 2020, published 2024)

Key:
[1] = test system: lung cancer cell line with molecular profile EGFR+/ALK−/ROS1− (HCC4006); assay: MTT proliferation, NSCLC cell line with EGFR+/ALK−/ROS1− profile; format: cell-based, human; details: 48 hours
Source text: (§1) EGFR, ALK and ROS1 are key molecular factors that may be used to determine pathological classification, prognosis, therapeutics and behaviour in patients with lung cancer. EGFR, ALK and ROS1 are biomarkers routinely analysed in the clinical practice of the management of patients with NSCLC. NSCLC with molecular profile EGFR-/ALK-/ROS1- presents a better response to treatment with the NK1 inhibitor aprepitant, compared to lung cancer with different profiles (in particular, EGFR+/ALK-/ROS1- and EGFR-/ALK+/ROS1-, in which EGFR and ALK respectively contain mutations relative to their wild type gene). Commercial lines of lung cancer were used as shown in Table 2 together with their molecular profile. The molecular profile of the cancer cell lines was determined by sequencing and can be consulted in the Cancer Cell Line Encyclopaedia database of public access available at the url: https://portals.broadinstitute.org/ccle All cells were cultured in wells under vendor-recommended conditions and exposed to different concentrations of aprepitant for 48 hours. In each case a group of wells of cells were used to which no treatment was applied and which were considered as controls. At 48 hours the number of cells was measured. Eight cell lines of human were used for the study of NK1 inhibitors (Table 3). All of them were maintained in culture in their respective culture media (Gibco,Thermo Fisher Scientific) supplemented with 10% foetal bovine serum (FBS) (Gibco, Thermo Fisher Scientific), 2 mM L-Glutamine (Gln) (Sigma-Aldrich, Merk), and […] and […] Gibco, Thermo Fisher Scientific) in a humidified incubator at 37° C. and 5% CO2. Cell culture media used are Dulbecco's Modified Eagle Medium (DMEM), and RPMI Medium 1640 (RPMI-1640). To measure cell viability, the cytotoxicity of drugs in culture was evaluated using the 3-(4,5-Dimethyl-2-thiazolyl)-2,5-diphenyl-2H-tetrazolium bromide (MTT) reduction assay. This assay assesses cell viability through the indirect measurement of the activity of reductases that convert yellow soluble MTT into purple insoluble formazan salts. As MTT can only be reduced when these enzymes are active, the reaction is used as an indicator of the cell metabolic competence and, therefore, of viability. A variable number of cells (depending on the cell line) were seeded in 96 multi-well plates and grown during 24 hours. The following day, the culture medium was aspirated and fresh culture medium with the drug dissolved was added to the wells. After 24 hours or 48 hours cell viability was measurement by adding 10 μl of a 5 mg/ml MTT solution (M5655; Sigma-Aldrich) and 100 μl of HCl 0.01M-SDS 10% solution 4 hours later. After 24 hours, the absorbance was measured at 595 nm, using a multi-well plate reader (iMark, Bio-rad). Each condition was tested 5 times, obtaining 5 values of absorbance. All sample measurements were corrected using the blank (culture medium without cells) mean absorbance value, and normalized to positive control to determinate relative cell viability for each condition at 24 and 48 hours.

A549 = assay: MTT proliferation, A549; format: cell-based, human; details: 48 hours
Source text: as §1

[2] = test system: human primary triple negative breast carcinoma (ER−/PR−/HER2−) tumour cells; assay: Primary triple negative breast carcinoma xenograft mouse model; format: in vivo, nu/nu Balb/c nude mice; details: for Mean proliferation: 28 days
Description: Immunocompromised female mice, 5-6 weeks of age were used, nu/nu Balb/c nude mice, provided by Harlan Iberica Barcelona (Spain). They were kept at 24° C. and in sterile conditions with food and water “ad libitum”. They were injected with 2×10^7 tumour cells, corresponding to human primary triple negative breast carcinoma (i.e. tumour cells having a ER−/PR−/HER2− molecular profile) in 200 μl of PBS subcutaneous route. The tumour size was measured and the mice were evaluated for their state of health and weight daily. The mice were randomised in groups when the tumours reached a volume of 75 mm^3. One of the groups was treated with 200 μl of placebo (control group) and the eight remaining groups with doses of 1 to 100 mg per kilogram of weight and day of the NK1 inhibitor aprepitant. Five animals were treated per group, during 28 days. All the mice were sacrificed at the end of the experiment.

H441 = assay: MTT proliferation, H441; format: cell-based, human; details: 48 hours
Source text: as §1

[3] = Xenograft mouse safety model (body weight, autopsy); format: in vivo, C57BL/6J mice
Description: Fosaprepitant dimeglumine salt (CAS No 265121-04-8) was purchased from Selleck Chemicals and administered intraperitoneally at 30, 60 and 100 mg/kg dose, once a day. Fosaprepitant is a pro-drug available for parenteral administration that in the body, once administered, becomes aprepitant.
3LL cells (0.6×10^6 per mouse) or B16F10 cells (1×10^6 per mouse) were subcutaneously injected into the right flank of C57BL/6J mice (Charles River) with matrigel (Matrigel Membrane Matrix, Corning) at 50% v/v. Tumour growth was evaluated every 2/3 days. Animal vital parameters were monitored daily. When the tumours reached an average volume of 100-150 mm ^3, mice were randomized into cohorts of 6 animals each and treatments were administered for 7-9 days. Groups and regimens for each experiment are described in Table 1. Animals of the control group were dosed with equal volume of vehicle. Animals were euthanized according to institutional guidelines and tumour samples were excised. Tumours were snap-frozen in OCT medium (Sakura Tissue Tek) or fixed in PFA and embedded in paraffin. Several internal organs were also excised and fixed in PFA for future studies.

Molecule `C[C@@H](O[C@H]1OCCN(Cc2nc(=O)[nH][nH]2)[C@H]1c1ccc(F)cc1)c1cc(C(F)(F)F)cc(C(F)(F)F)c1` [Aprepitant] has a Mean proliferation ([1]; aprepitant 1 μM) of 101.53, a Mean proliferation ([1]; aprepitant 3 μM) of 99.73 and a Mean proliferation ([1]; aprepitant 5 μM) of 96.4. It also gave a Mean proliferation ([1]; aprepitant 10 μM) of 89.14, a Mean proliferation ([1]; aprepitant 20 μM) of 69.95 and a Mean proliferation ([1]; aprepitant 30 μM) of 54.9. It also gave a Mean proliferation ([1]; aprepitant 40 μM) of 38.12, a Mean proliferation ([1]; aprepitant 50 μM) of 24.82 and a Mean proliferation ([1]; aprepitant 60 μM) of 14.95. It also gave a Mean proliferation (A549; aprepitant 1 μM) of 96.56, a Mean proliferation (A549; aprepitant 3 μM) of 94.80 and a Mean proliferation (A549; aprepitant 5 μM) of 64.40. For the same molecule, the Mean proliferation (A549; aprepitant 10 μM) was 52.17, the Mean proliferation (A549; aprepitant 20 μM) was 40.48 and the Mean proliferation (A549; aprepitant 30 μM) was 35.59. The Mean proliferation (A549; aprepitant 40 μM) was 21.55, the Mean proliferation (A549; aprepitant 50 μM) was 9.17 and the Mean proliferation (A549; aprepitant 60 μM) was 11.36. The “Mean proliferation” value ([2]; aprepitant 1 mg/kg/day) was 104, the “Mean proliferation” value ([2]; aprepitant 3 mg/kg/day) was 108 and the “Mean proliferation” value ([2]; aprepitant 5 mg/kg/day) was 112. For the same molecule, the “Mean proliferation” value ([2]; aprepitant 8 mg/kg/day) was 110, the “Mean proliferation” value ([2]; aprepitant 10 mg/kg/day) was 99 and the “Mean proliferation” value ([2]; aprepitant 20 mg/kg/day) was 76. For the same molecule, the “Mean proliferation” value ([2]; aprepitant 30 mg/kg/day) was 65, the “Mean proliferation” value ([2]; aprepitant 40 mg/kg/day) was 61 and the “Mean proliferation” value ([2]; aprepitant 50 mg/kg/day) was 56. For the same molecule, the “Mean proliferation” value ([2]; aprepitant 60 mg/kg/day) was 54, the “Mean proliferation” value ([2]; aprepitant 70 mg/kg/day) was 50 and the “Mean proliferation” value ([2]; aprepitant 80 mg/kg/day) was 50. The “triple negative human primary breast carcinoma proliferation in a xenograft model” value ([2]; dose-dependent fashion) was “reduces”, the Mean proliferation (H441; aprepitant 1 μM) was 100.6 and the Mean proliferation (H441; aprepitant 3 μM) was 90.97. It also gave a Mean proliferation (H441; aprepitant 5 μM) of 64.10, a Mean proliferation (H441; aprepitant 10 μM) of 61.08 and a Mean proliferation (H441; aprepitant 20 μM) of 53.64. For the same molecule, the Mean proliferation (H441; aprepitant 30 μM) was 37.56, the Mean proliferation (H441; aprepitant 40 μM) was 20.50 and the Mean proliferation (H441; aprepitant 50 μM) was 3.14. For the same molecule, the Mean proliferation (H441; aprepitant 60 μM) was 10.83, the “autopsy, organs explored microscopically: signs of toxicity” value ([3]; all animals, 30, 60 and 100 mg/kg/day) was “no significant signs of toxicity” and the “safety (body weight, histological study of the main organs)” value ([3]; mouse, in vivo, 100 mg/kg/day) was “safe”.
